Source: ChEMBL document CHEMBL1833831, “In vivo anti-inflammatory and antioxidant properties of ellagitannin metabolite urolithin A” (Bioorg Med Chem Lett, 2011)
Calls of active or inactive are those of the source. The rule behind the calls is not given here.

What was measured:
[1] = Drug level in rat plasma at 5 mg after 6 hrs; assay type: ADME, cell-free
Plasma [2] = assay: Drug level in ICR mouse plasma assessed as free compound level after 6 hrs in presence of beta-glucuronidase by HPLC-ESI-MS/MS analysis; assay type: ADME, cell-free
Mus musculus [3] = assay: Antiinflammatory activity against carrageenan-induced paw edema in ICR mouse at 300 mg/kg, po administered 1 hr before carrageenan challenge measured after 3 hrs by plethysmometer relative to control; assay type: functional
Mus musculus [4] = assay: Antioxidant activity against AAPH-induced lipid peroxidation in ICR mouse assessed as decrease in ORAC score in plasma at 300 mg/kg, po after 6 hr relative to control; assay type: functional; set-up: scale not given: the % may be the effect or the level left
Mus musculus [5] = assay: Antioxidant activity against AAPH-induced lipid peroxidation in ICR mouse assessed as increase in ORAC score in plasma at 300 mg/kg, po after 1 hr relative to control; assay type: functional
Plasma [6] = assay: Drug level in ICR mouse plasma assessed as free compound level after 6 hrs in presence of beta-glucuronidase by HPLC-ESI-MS/MS analysis relative to total compound level; assay type: ADME, cell-free
Mus musculus [7] = assay: Antiinflammatory activity against carrageenan-induced paw edema in ICR mouse at 300 mg/kg, po administered 1 hr before carrageenan challenge measured after 24 hrs by plethysmometer relative to control; assay type: functional
Mus musculus [8] = assay: Antiinflammatory activity against carrageenan-induced paw edema in ICR mouse at 300 mg/kg, po administered 6 hr before carrageenan challenge measured after 3 to 24 hrs by plethysmometer; assay type: functional, organism-based; set-up: dose 300 mg/kg
[9] = Drug level in human plasma after 6 hrs; assay type: ADME, cell-free
Plasma [10] = assay: Drug level in ICR mouse plasma assessed as free compound level after 1 hr in presence of beta-glucuronidase by HPLC-ESI-MS/MS analysis relative to total compound level; assay type: ADME, cell-free
Mus musculus [11] = assay: Antiinflammatory activity against carrageenan-induced paw edema in ICR mouse at 300 mg/kg, po administered 1 hr before carrageenan challenge measured after 6 hrs by plethysmometer relative to control; assay type: functional
[12] = Drug level in human plasma after 0.5 hrs; assay type: ADME, cell-free
Plasma [13] = assay: Drug level in ICR mouse plasma assessed as free compound level after 1 hr in presence of beta-glucuronidase by HPLC-ESI-MS/MS analysis; assay type: ADME, cell-free

Row | SMILES | concentration at 6 h [1] [nM] | Cp(f) (Plasma [2]) [nM] | Activity (Mus musculus [3]) [%] | Activity (Mus musculus [4]) [%] | Activity (Mus musculus [5]) [%] | Cp(f) (Plasma [6]) [%] | Activity (Mus musculus [7]) [%] | Activity (Mus musculus [8]) | concentration at 6 h [9] [nM] | Cp(f) (Plasma [10]) [%] | Activity (Mus musculus [11]) [%] | concentration at 0.5 h [12] [nM] | Cp(f) (Plasma [13]) [nM]
1 | O=C1O[C@H]2[C@@H]3OC(=O)c4cc(O)c(O)c(O)c4-c4c(cc(O)c(O)c4O)C(=O)OC[C@H]2O[C@@H](OC(=O)c2cc(O)c(O)c(O)c2)[C@@H]3OC(=O)c2cc(O)c(O)c3c2[C@@H]2C1=CC(=O)[C@](O)(O3)C2(O)O [GERANIIN] | 450 | – | – | – | – | – | – | – | – | – | – | – | –
2 | O=c1oc2cc(O)ccc2c2ccc(O)cc12 | – | 830 | 35 | 118 | 142 | 65.7 | 34 | inactive | 110 | 77.2 | 26 | 40 | 2850
